Assay results taken from ChEMBL document CHEMBL1770093, “Potent antiprotozoal activity of a novel semi-synthetic berberine derivative” (Bioorg Med Chem Lett, 2011).
Counter-ions that a name gives are not always drawn.

How the values were obtained:
[1] = test system: Trypanosoma brucei brucei; assay: Antitrypanosomal activity against bloodstream form of Trypanosoma brucei brucei; type: functional, organism-based
Mus musculus = assay: Toxicity in Leishmania amazonensis infected mouse visceral leishmaniasis model at > 1 mg/kg/day, ip; type: organism-based; parameters: route intraperitoneal; details: in vivo
Vero = assay: Cytotoxicity against african green monkey Vero cells; type: cell-based; details: Chlorocebus sabaeus
[2] = Selectivity index, ratio of IC50 for african green monkey Vero cells to IC50 for bloodstream form of Trypanosoma brucei brucei; type: toxicity, cell-based; details: read-out: Ratio IC50
Plasmodium falciparum = assay: Antimalarial activity against Plasmodium falciparum by flow cytometry; type: functional, organism-based
Leishmania amazonensis [3] = assay: Antileishmanial activity against intracellular Leishmania amazonensis infected in mouse peritoneal macrophages; type: functional, organism-based
Leishmania amazonensis [4] = assay: Antileishmanial activity against Leishmania amazonensis infected in mouse visceral leishmaniasis model assessed as decrease in parasitemia level in liver at 1 mg/kg/day, ip administered 5 times; type: functional; parameters: scale not given: the % may be the effect or the level left; details: route intraperitoneal
Leishmania amazonensis [5] = assay: Antileishmanial activity against Leishmania amazonensis infected in mouse visceral leishmaniasis model assessed as decrease in parasitemia level in liver at 10 mg/kg/day, ip administered 5 times; type: functional; parameters: scale not given: the % may be the effect or the level left; details: route intraperitoneal

IC50 [1] [nM] | IC50 (Plasmodium falciparum) [nM] | IC50 (Leishmania amazonensis [3]) [nM] | SMILES | also measured
9.1 | 36 | 180 | CCC1(CC)c2c(ccc(OC)c2OC)C(=O)c2c3cc4c(cc3cc[n+]21)OCO4.[Cl-] | Activity (Mus musculus): Toxic; IC50 (Vero): 91000 nM; selectivity ratio [2]: 10000; Activity (Leishmania amazonensis [4]): 47%
250 | – | – | Cc1ccc(C(=O)Nc2ccc(S(=O)(=O)O)c3cc(S(=O)(=O)O)cc(S(=O)(=O)O)c23)cc1NC(=O)c1cccc(NC(=O)Nc2cccc(C(=O)Nc3cc(C(=O)Nc4ccc(S(=O)(=O)O)c5cc(S(=O)(=O)O)cc(S(=O)(=O)O)c45)ccc3C)c2)c1 [SURAMIN] | –
1100 | 800 | 17000 | COc1ccc2cc3[n+](cc2c1OC)CCc1cc2c(cc1-3)OCO2 [BERBERINE SULFATE] | –
– | – | – | CCCCCCCCCCCCCCCCOP(=O)([O-])OCC[N+](C)(C)C [MILTEFOSINE] | Activity (Leishmania amazonensis [5]): 98%
– | – | 120 | C[C@@H]1[C@H](O)[C@@H](C)/C=C/C=C/C=C/C=C/C=C/C=C/C=C/[C@H](O[C@@H]2O[C@H](C)[C@@H](O)[C@H](N)[C@@H]2O)C[C@@H]2O[C@](O)(C[C@@H](O)C[C@@H](O)[C@H](O)CC[C@@H](O)C[C@@H](O)CC(=O)O[C@H]1C)C[C@H](O)[C@H]2C(=O)O [AMPHOTERICIN B] | –
